Experimental findings from patent publication US10391081B2, “FGFR gatekeeper mutant gene and drug targeting same” (CHUGAI SEIYAKU KABUSHIKI KAISHA, priority 2013, dated 2019) are described below.

This assay addresses T1, TEL-fused FGFR2 V564F mutant polypeptide (Homo sapiens, UniProt P21802, V564F).
T1 construct: expressed in transfected cells; for A6/A7 grown as subcutaneous tumours in BALB/c nude mice
Briefly: In vitro cell proliferation inhibition (WST-8), Ba/F3 strain stably expressing TEL-fused FGFR2 V564F mutant. Type of assay: cell-based. As to conditions: cultured four days, FIG. 3. An excerpt: A polynucleotide encoding the dimerization domain of wild-type TEL (SEQ ID NO: 33) and a polynucleotide encoding the intracellular domain of wild-type FGFR2 (SEQ ID NO: 1) were fused by a PCR-based site-directed mutagenesis method to produce a polynucleotide (SEQ ID NO: 11) encoding the TEL-fused wild-type FGFR2 (SEQ ID NO: 34). Using the polynucleotide encoding the TEL-fused wild-type FGFR2 as a template, a polynucleotide (SEQ ID NO: 12) encoding the TEL-fused FGFR2 V564F mutant (SEQ ID NO: 35) was prepared by a PCR-based site-directed mutagenesis method.

T1 sequence (P21802 with tags, fused parts or gaps V564F): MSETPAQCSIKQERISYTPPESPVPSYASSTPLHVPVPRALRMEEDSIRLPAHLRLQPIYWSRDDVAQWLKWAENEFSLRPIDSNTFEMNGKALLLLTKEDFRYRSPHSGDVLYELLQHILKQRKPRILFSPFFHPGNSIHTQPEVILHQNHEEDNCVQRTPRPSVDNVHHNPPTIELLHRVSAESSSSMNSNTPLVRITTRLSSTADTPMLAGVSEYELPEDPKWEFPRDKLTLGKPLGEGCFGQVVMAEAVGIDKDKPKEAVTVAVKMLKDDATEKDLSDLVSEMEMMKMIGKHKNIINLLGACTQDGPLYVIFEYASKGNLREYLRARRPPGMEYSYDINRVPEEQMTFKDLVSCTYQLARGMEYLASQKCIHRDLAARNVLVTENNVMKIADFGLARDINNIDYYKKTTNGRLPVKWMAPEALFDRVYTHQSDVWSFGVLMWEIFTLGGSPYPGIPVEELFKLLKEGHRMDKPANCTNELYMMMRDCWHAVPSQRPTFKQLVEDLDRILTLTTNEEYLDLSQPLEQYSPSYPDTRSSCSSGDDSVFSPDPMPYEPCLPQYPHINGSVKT

Take `COc1cc2c(Oc3ccc4[nH]c(C)cc4c3F)ncnc2cc1OCCCN1CCCC1` [E, cediranib]: the “cell proliferation-inhibiting activity compared to the strain stably expressing TEL-fused wild-type FGFR2” value is on record as “greatly weakened”.

Turning to `CCN1CCN(c2ccc(Nc3cc(N(C)C(=O)Nc4c(Cl)c(OC)cc(OC)c4Cl)ncn3)cc2)CC1` [Compound D, BGJ-398], the “cell proliferation-inhibiting activity compared to the strain stably expressing TEL-fused wild-type FGFR2” value was “greatly weakened”.
